Columns and labels:
CCRF-CEM = test: Anticancer activity against human CCRF-CEM cells assessed as cell growth inhibition incubated for 48 hrs by SRB assay; format: functional
HL-60(TB) = test: Anticancer activity against human HL-60(TB) cells assessed as cell growth inhibition incubated for 48 hrs by SRB assay; format: functional
K562 = test: Anticancer activity against human K562 cells assessed as cell growth inhibition incubated for 48 hrs by SRB assay; format: functional
RPMI-8226 = test: Anticancer activity against human RPMI-8226 cells assessed as cell growth inhibition incubated for 48 hrs by SRB assay; format: functional
SR = test: Anticancer activity against human SR cells assessed as cell growth inhibition incubated for 48 hrs by SRB assay; format: functional
A549 = test: Anticancer activity against human A549 cells assessed as cell growth inhibition incubated for 48 hrs by SRB assay; format: functional
HOP-62 = test: Anticancer activity against human HOP-62 cells assessed as cell growth inhibition incubated for 48 hrs by SRB assay; format: functional
HOP-92 = test: Anticancer activity against human HOP-92 cells assessed as cell growth inhibition incubated for 48 hrs by SRB assay; format: functional
NCI-H460 = test: Anticancer activity against human NCI-H460 cells assessed as cell growth inhibition incubated for 48 hrs by SRB assay; format: functional
NCI-H522 = test: Anticancer activity against human NCI-H522 cells assessed as cell growth inhibition incubated for 48 hrs by SRB assay; format: functional
COLO 205 = test: Anticancer activity against human COLO 205 cells assessed as cell growth inhibition incubated for 48 hrs by SRB assay; format: functional
HCC 2998 = test: Anticancer activity against human HCC 2998 cells assessed as cell growth inhibition incubated for 48 hrs by SRB assay; format: functional
HCT-116 = test: Anticancer activity against human HCT-116 cells assessed as cell growth inhibition incubated for 48 hrs by SRB assay; format: functional
HCT-15 = test: Anticancer activity against human HCT-15 cells assessed as cell growth inhibition incubated for 48 hrs by SRB assay; format: functional
HT-29 = test: Anticancer activity against human HT-29 cells assessed as cell growth inhibition incubated for 48 hrs by SRB assay; format: functional
SW-620 = test: Anticancer activity against human SW-620 cells assessed as cell growth inhibition incubated for 48 hrs by SRB assay; format: functional
SF-268 = test: Anticancer activity against human SF-268 cells assessed as cell growth inhibition incubated for 48 hrs by SRB assay; format: functional
SF-295 = test: Anticancer activity against human SF-295 cells assessed as cell growth inhibition incubated for 48 hrs by SRB assay; format: functional
SNB-75 = test: Anticancer activity against human SNB-75 cells assessed as cell growth inhibition incubated for 48 hrs by SRB assay; format: functional
U-251 = test: Anticancer activity against human U-251 cells assessed as cell growth inhibition incubated for 48 hrs by SRB assay; format: functional
Malme-3M = test: Anticancer activity against human Malme-3M cells assessed as cell growth inhibition incubated for 48 hrs by SRB assay; format: functional
M14 = test: Anticancer activity against human M14 cells assessed as cell growth inhibition incubated for 48 hrs by SRB assay; format: functional
MDA-MB-435 = test: Anticancer activity against human MDA-MB-435 cells assessed as cell growth inhibition incubated for 48 hrs by SRB assay; format: functional
SK-MEL-2 = test: Anticancer activity against human SK-MEL-2 cells assessed as cell growth inhibition incubated for 48 hrs by SRB assay; format: functional
UACC-62 = test: Anticancer activity against human UACC-62 cells assessed as cell growth inhibition incubated for 48 hrs by SRB assay; format: functional
OVCAR-3 = test: Anticancer activity against human OVCAR-3 cells assessed as cell growth inhibition incubated for 48 hrs by SRB assay; format: functional
OVCAR-4 = test: Anticancer activity against human OVCAR-4 cells assessed as cell growth inhibition incubated for 48 hrs by SRB assay; format: functional
OVCAR-5 = test: Anticancer activity against human OVCAR-5 cells assessed as cell growth inhibition incubated for 48 hrs by SRB assay; format: functional
NCI/ADR-RES = test: Anticancer activity against human NCI/ADR-RES cells assessed as cell growth inhibition incubated for 48 hrs by SRB assay; format: functional
A498 = test: Anticancer activity against human A498 cells assessed as cell growth inhibition incubated for 48 hrs by SRB assay; format: functional
CAKI-1 = test: Anticancer activity against human CAKI-1 cells assessed as cell growth inhibition incubated for 48 hrs by SRB assay; format: functional
RXF 393 = test: Anticancer activity against human RXF 393 cells assessed as cell growth inhibition incubated for 48 hrs by SRB assay; format: functional
UO-31 = test: Anticancer activity against human UO-31 cells assessed as cell growth inhibition incubated for 48 hrs by SRB assay; format: functional
PC-3 = test: Anticancer activity against human PC-3 cells assessed as cell growth inhibition incubated for 48 hrs by SRB assay; format: functional
DU-145 = test: Anticancer activity against human DU-145 cells assessed as cell growth inhibition incubated for 48 hrs by SRB assay; format: functional
MCF7 = test: Anticancer activity against human MCF7 cells assessed as cell growth inhibition incubated for 48 hrs by SRB assay; format: functional
MDA-MB-231 = test: Anticancer activity against human MDA-MB-231 cells assessed as cell growth inhibition incubated for 48 hrs by SRB assay; format: functional
Hs-578T = test: Anticancer activity against human Hs-578T cells assessed as cell growth inhibition incubated for 48 hrs by SRB assay; format: functional
T47D = test: Anticancer activity against human T47D cells assessed as cell growth inhibition incubated for 48 hrs by SRB assay; format: functional
[1] = Cytotoxicity against human HEK293 cells assessed as inhibition of cell viability by MTT assay
[2] = read-out: LC50 (the source's name)

Q: With `NS(=O)(=O)c1ccc(Nc2nc(N/N=C/c3ccccn3)nc(Nc3ccccc3)n2)cc1` as the molecule, how does the GI50 (CCRF-CEM) read?
A: Its GI50 is 0.31 µM.

Q: And the CC50 (CCRF-CEM; [2])?
A: Its CC50 is greater than 100 µM.

Q: And the GI50 (HL-60(TB))?
A: Its GI50 is 0.63 µM.

Q: And the CC50 (HL-60(TB); [2])?
A: Its CC50 is greater than 100 µM.

Q: And the GI50 (K562)?
A: The GI50 was 0.4 µM.

Q: What about the CC50 (K562; [2]) of the same molecule?
A: The CC50 was greater than 100 µM.

Q: And the GI50 (RPMI-8226)?
A: The GI50 was 2.11 µM.

Q: And the LC50 (concentration killing 50% of cells) (RPMI-8226)?
A: The LC50 (concentration killing 50% of cells) was greater than 100 µM.

Q: And the GI50 (SR)?
A: The GI50 was 0.33 µM.

Q: And the CC50 (SR; [2])?
A: The CC50 was greater than 100 µM.

Q: What about the GI50 (A549) of the same molecule?
A: Its GI50 is 2.29 µM.

Q: What about the LC50 (A549) of the same molecule?
A: Its LC50 is greater than 100 µM.

Q: What about the GI50 (HOP-62) of the same molecule?
A: Its GI50 is 0.55 µM.

Q: And the CC50 (HOP-62; [2])?
A: Its CC50 is greater than 100 µM.

Q: What about the GI50 (HOP-92) of the same molecule?
A: Its GI50 is 0.8 µM.

Q: What about the CC50 (HOP-92; [2]) of the same molecule?
A: Its CC50 is greater than 100 µM.

Q: And the GI50 (NCI-H460)?
A: Its GI50 is 2.41 µM.

Q: What about the CC50 (NCI-H460; [2]) of the same molecule?
A: The CC50 was greater than 100 µM.

Q: And the GI50 (NCI-H522)?
A: The GI50 was 0.45 µM.

Q: What about the CC50 (NCI-H522; [2]) of the same molecule?
A: The CC50 was greater than 100 µM.

Q: What about the GI50 (COLO 205) of the same molecule?
A: Its GI50 is 0.41 µM.

Q: What about the CC50 (COLO 205; [2]) of the same molecule?
A: Its CC50 is greater than 100 µM.

Q: And the GI50 (HCC 2998)?
A: Its GI50 is 0.65 µM.

Q: And the CC50 (HCC 2998; [2])?
A: Its CC50 is greater than 100 µM.

Q: What about the GI50 (HCT-116) of the same molecule?
A: The GI50 was 0.39 µM.

Q: What about the LC50 (concentration killing 50% of cells) (HCT-116) of the same molecule?
A: The LC50 (concentration killing 50% of cells) was greater than 100 µM.

Q: What about the GI50 (HCT-15) of the same molecule?
A: The GI50 was 1.45 µM.

Q: What about the CC50 (HCT-15; [2]) of the same molecule?
A: The CC50 was greater than 100 µM.

Q: And the GI50 (HT-29)?
A: The GI50 was 2.15 µM.

Q: What about the CC50 (HT-29; [2]) of the same molecule?
A: The CC50 was greater than 100 µM.

Q: And the GI50 (SW-620)?
A: Its GI50 is 0.71 µM.

Q: And the CC50 (SW-620; [2])?
A: The CC50 was greater than 100 µM.

Q: What about the GI50 (SF-268) of the same molecule?
A: The GI50 was 0.46 µM.

Q: And the LC50 (concentration killing 50% of cells) (SF-268)?
A: Its LC50 (concentration killing 50% of cells) is greater than 100 µM.

Q: What about the GI50 (SF-295) of the same molecule?
A: Its GI50 is 1.4 µM.

Q: What about the CC50 (SF-295; [2]) of the same molecule?
A: Its CC50 is greater than 100 µM.

Q: What about the GI50 (SNB-75) of the same molecule?
A: The GI50 was 1.32 µM.

Q: And the LC50 (concentration killing 50% of cells) (SNB-75)?
A: Its LC50 (concentration killing 50% of cells) is 5.71 µM.

Q: What about the GI50 (U-251) of the same molecule?
A: The GI50 was 0.51 µM.

Q: What about the CC50 (U-251; [2]) of the same molecule?
A: Its CC50 is greater than 100 µM.

Q: And the GI50 (Malme-3M)?
A: Its GI50 is 1 µM.

Q: And the CC50 (Malme-3M; [2])?
A: Its CC50 is 6.28 µM.

Q: And the GI50 (M14)?
A: Its GI50 is 0.85 µM.

Q: What about the GI50 (MDA-MB-435) of the same molecule?
A: The GI50 was 0.91 µM.

Q: What about the LC50 (MDA-MB-435) of the same molecule?
A: Its LC50 is 5.93 µM.

Q: What about the GI50 (SK-MEL-2) of the same molecule?
A: The GI50 was 1.5 µM.

Q: What about the GI50 (UACC-62) of the same molecule?
A: Its GI50 is 0.57 µM.

Q: What about the LC50 (UACC-62) of the same molecule?
A: Its LC50 is 6.15 µM.

Q: And the GI50 (OVCAR-3)?
A: Its GI50 is 0.46 µM.

Q: What about the LC50 (concentration killing 50% of cells) (OVCAR-3) of the same molecule?
A: The LC50 (concentration killing 50% of cells) was greater than 100 µM.

Q: And the GI50 (OVCAR-4)?
A: Its GI50 is 0.44 µM.

Q: And the LC50 (concentration killing 50% of cells) (OVCAR-4)?
A: The LC50 (concentration killing 50% of cells) was greater than 100 µM.

Q: And the GI50 (OVCAR-5)?
A: The GI50 was 1.6 µM.

Q: And the CC50 (OVCAR-5; [2])?
A: Its CC50 is greater than 100 µM.

Q: And the GI50 (NCI/ADR-RES)?
A: The GI50 was 2.75 µM.

Q: What about the CC50 (NCI/ADR-RES; [2]) of the same molecule?
A: The CC50 was greater than 100 µM.

Q: What about the GI50 (A498) of the same molecule?
A: The GI50 was 1.61 µM.

Q: And the CC50 (A498; [2])?
A: The CC50 was 6.89 µM.

Q: And the GI50 (CAKI-1)?
A: The GI50 was 0.61 µM.

Q: And the CC50 (CAKI-1; [2])?
A: Its CC50 is greater than 100 µM.

Q: And the GI50 (RXF 393)?
A: Its GI50 is 1.07 µM.

Q: And the CC50 (RXF 393; [2])?
A: Its CC50 is 6.51 µM.

Q: What about the GI50 (UO-31) of the same molecule?
A: The GI50 was 1.5 µM.

Q: And the CC50 (UO-31; [2])?
A: The CC50 was 89.5 µM.

Q: What about the GI50 (PC-3) of the same molecule?
A: Its GI50 is 0.69 µM.

Q: What about the CC50 (PC-3; [2]) of the same molecule?
A: The CC50 was greater than 100 µM.

Q: And the GI50 (DU-145)?
A: Its GI50 is 0.85 µM.

Q: And the LC50 (50% lethal concentration) (DU-145)?
A: Its LC50 (50% lethal concentration) is greater than 100 µM.

Q: And the GI50 (MCF7)?
A: Its GI50 is 1.1 µM.

Q: What about the LC50 (MCF7) of the same molecule?
A: The LC50 was 6.8 µM.

Q: And the GI50 (MDA-MB-231)?
A: The GI50 was 0.5 µM.

Q: And the LC50 (concentration killing 50% of cells) (MDA-MB-231)?
A: Its LC50 (concentration killing 50% of cells) is greater than 100 µM.

Q: What about the GI50 (Hs-578T) of the same molecule?
A: Its GI50 is 1.88 µM.

Q: And the LC50 (concentration killing 50% of cells) (Hs-578T)?
A: Its LC50 (concentration killing 50% of cells) is greater than 100 µM.

Q: What about the GI50 (T47D) of the same molecule?
A: Its GI50 is 0.47 µM.

Q: What about the LC50 (T47D) of the same molecule?
A: Its LC50 is greater than 100 µM.

Q: What about the IC50 [1] of the same molecule?
A: The IC50 was 45.6 µM.

From ChEMBL document CHEMBL5154747, “Discovery of new carbonic anhydrase IX inhibitors as anticancer agents by toning the hydrophobic and hydrophilic rims of the active site to encounter the dual-tail approach” (Eur J Med Chem, 2022)
